The values below come from US8399465B2, “Compounds with two fused bicyclic heteroaryl moieties as modulators of leukotriene A4 hydrolase” (Janssen Pharmaceutica NV, priority 2009, dated 2013).

The target of test [1] is T1, recombinant human LTA4 hydrolase (rhLTA4H) (Homo sapiens, UniProt P09960).
T1 construct: made in house; host or cells: Spodoptera frugiperda (Sf-9) cells, baculovirus (pFastBac1)
T1 sequence (P09960 1-611): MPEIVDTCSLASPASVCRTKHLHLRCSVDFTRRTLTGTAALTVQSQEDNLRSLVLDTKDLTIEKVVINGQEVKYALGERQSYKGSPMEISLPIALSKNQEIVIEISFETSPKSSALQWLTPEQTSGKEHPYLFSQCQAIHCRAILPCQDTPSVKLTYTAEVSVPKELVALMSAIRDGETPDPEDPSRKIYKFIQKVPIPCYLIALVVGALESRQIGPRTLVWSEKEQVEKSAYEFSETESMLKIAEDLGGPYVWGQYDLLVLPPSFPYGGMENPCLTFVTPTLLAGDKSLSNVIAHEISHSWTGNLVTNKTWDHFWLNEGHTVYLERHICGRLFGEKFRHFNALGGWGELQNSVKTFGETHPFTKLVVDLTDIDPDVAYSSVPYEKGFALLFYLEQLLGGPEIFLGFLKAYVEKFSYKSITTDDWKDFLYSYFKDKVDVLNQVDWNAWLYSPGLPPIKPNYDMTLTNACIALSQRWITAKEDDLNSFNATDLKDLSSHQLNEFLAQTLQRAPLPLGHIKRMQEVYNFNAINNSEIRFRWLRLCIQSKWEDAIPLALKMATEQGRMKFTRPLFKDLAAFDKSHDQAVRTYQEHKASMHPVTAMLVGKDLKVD
As to the kind of experiment: Recombinant human LTA4 hydrolase assay for LTA4 hydrolase inhibitor activity. The conditions noted are these: rhLTA4H, LTB4 by immunoassay; single determination or average of two or more; mark after value = form tested: ′ free base, ″ hydrochloride, ^ formate; read-out: IC50. In kind it is biochemical. Summed up:
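LTB4 formation, measured by enzyme immunoassay, was the read-out. The enzyme, recombinant human LTA4H expressed in Sf-9 insect cells (10 ng per reaction), was exposed to compound for 10 min at room temperature before hydrolysed-ester LTA4 substrate was added for 30 min. Enzyme-free negatives were included.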

Test [2] concerns LTB4 production in murine blood (LTA4H). As to the kind of experiment: LTB4 production by calcium ionophore-stimulated murine blood for LTA4H inhibitor activity. In kind it is cell-based, CD-1 mice. The conditions noted are these: Mus musculus. Summed up: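 LTB4 was measured by ELISA in supernatants after calcium ionophore A23187 stimulation (final 7 μg/mL, 30 min, 37° C) of CD-1 mouse blood collected on heparin. Compound was preincubated with the blood for 15 min beforehand. Values come from one determination or average several.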

The mark [3] stands for this setting: murine blood diluted 1 in 15, A23187 stimulated, single determination or average, mark after value = form tested: ′ free base, ″ hydrochloride, ^ formate, read-out: IC50.

Structures are written as SMILES. Counter-ions that a name gives are not always drawn. Like-named read-outs stand apart in the source and are kept apart here.

Broadly, the IC50 is the concentration at which inhibition is half-maximal.

With `c1ccc2sc(Oc3ccc4[nH]c(CN5CCCCC5)cc4c3)nc2c1` [Example 65, 2-(2-Piperidin-1-ylmethyl-1H-indol-5-yloxy)-benzothiazole], the figures for the IC50 in test [1] and in test [2] (setting [3]) were 100 nM and 1110 nM, respectively.
For the compound `CC(=O)N1CCN(Cc2cc3ccc(Oc4nc5ncccc5s4)cc3o2)CC1` [Example 171, 1-{4-[6-(Thiazolo[4,5-b]pyridin-2-yloxy)-benzofuran-2-ylmethyl]-piperazin-1-yl}-ethanone], the IC50 in test [1] turned out to be 59 nM; in test [2] (setting [3]), 280 nM.
Take `CC(C)(C)OC(=O)NC1CCN(Cc2c[nH]c3cc(Oc4nc5ccccc5s4)ccc23)CC1` [Example 145, {1-[6-(Benzothiazol-2-yloxy)-1H-indol-3-ylmethyl]-piperidin-4-yl}-carbamic acid tert-butyl ester]: the figures for the IC50 in test [1] and in test [2] (setting [3]) were 9.7 nM and 171 nM, respectively.
For `c1cnc2nc(Oc3ccc4c(CN5CCC(c6ccncc6)CC5)coc4c3)sc2c1` [Example 220, 1-[6-(Thiazolo[4,5-b]pyridin-2-yloxy)-benzofuran-3-ylmethyl]-1,2,3,4,5,6-hexahydro-[4,4′]bipyridinyl], the figures for the IC50 in test [1] and in test [2] (setting [3]) were 5 nM and 12 nM, respectively.
For `O=C1CCCN1C1CCN(Cc2c[nH]c3cc(Oc4nc5ccccc5s4)ccc23)CC1` [Example 30, 1-{1-[6-(Benzothiazol-2-yloxy)-1H-indol-3-ylmethyl]-piperidin-4-yl}-pyrrolidin-2-one], in that order: 11 nM and 143 nM.
As for `CC(=O)N1CCN(CC(=O)NCc2coc3cc(Oc4nc5ncccc5s4)ccc23)CC1` [Example 390, 2-(4-Acetyl-piperazin-1-yl)-N-[6-(thiazolo[4,5-b]pyridin-2-yloxy)-benzofuran-3-ylmethyl]-acetamide], the IC50 in test [1] worked out at 27 nM; in test [2] (setting [3]), 270 nM.
For `CCOC(=O)NC1CCN(Cc2c[nH]c3cc(Oc4nc5ccccc5s4)ccc23)CC1` [Example 29, {1-[6-(Benzothiazol-2-yloxy)-1H-indol-3-ylmethyl]-piperidin-4-yl}-carbamic acid ethyl ester], in that order: 15 nM and 234 nM.
In the case of `CS(=O)(=O)NCCC1CCN(Cc2coc3cc(Oc4nc5ccccc5s4)ccc23)CC1` [Example 364, N-(2-{1-[6-(Benzothiazol-2-yloxy)-benzofuran-3-ylmethyl]-piperidin-4-yl}-ethyl)-methanesulfonamide], the 50% inhibitory concentration (IC50) in test [1] worked out at 18 nM; in test [2] (setting [3]), 310 nM.
Turning to `c1cnc2nc(Oc3ccc4c(CN5CCC6CCCCC6C5)coc4c3)sc2c1` (stereo not shown) [Example 266, 2-[6-(Thiazolo[4,5-b]pyridin-2-yloxy)-benzofuran-3-ylmethyl]-decahydro-isoquinoline formate], the IC50 in test [1] came to 2 nM; in test [2] (setting [3]) it was 100 nM.
On to `c1ccc2c(c1)CCN(Cc1c[nH]c3cc(Oc4nc5ccccc5s4)ccc13)C2` [Example 7, 2-[6-(Benzothiazol-2-yloxy)-1H-indol-3-ylmethyl]-1,2,3,4-tetrahydro-isoquinoline], for which the IC50 in test [1] amounted to 42 nM; in test [2] (setting [3]), 476 nM.
`CS(=O)(=O)N1CCN(Cc2coc3cc(Oc4nc5ncccc5s4)ccc23)CC1` [Example 243, 2-[3-(4-Methanesulfonyl-piperazin-1-ylmethyl)-benzofuran-6-yloxy]-thiazolo[4,5-b]pyridine]: the figures for the IC50 in test [1] and in test [2] (setting [3]) were 6 nM and 80 nM, respectively.
In the case of `NC(=O)N1CC2CN(Cc3coc4cc(Oc5nc6ncccc6s5)ccc34)CC2C1` (stereo not shown) [Example 161, 5-[6-(Thiazolo[4,5-b]pyridin-2-yloxy)-benzofuran-3-ylmethyl]-hexahydro-pyrrolo[3,4-c]pyrrole-2-carboxylic acid amide], the IC50 in test [1] is 9 nM; in test [2] (setting [3]), 69 nM.
Consider `CC(=O)N1C[C@@H]2C[C@H]1CN2Cc1coc2cc(Oc3nc4ccccc4s3)ccc12` [Example 164, (1S,4S)-1-{5-[6-(Benzothiazol-2-yloxy)-benzofuran-3-ylmethyl]-2,5-diaza-bicyclo[2.2.1]hept-2-yl}-ethanone], for which the values for the IC50 in test [1] and in test [2] (setting [3]) were 26 nM and 230 nM, respectively.
For `CN(Cc1ccco1)Cc1coc2cc(Oc3nc4ncccc4s3)ccc12` [Example 176, Furan-2-ylmethyl-methyl-[6-(thiazolo[4,5-b]pyridin-2-yloxy)-benzofuran-3-ylmethyl]-amine], the values for the IC50 in test [1] and in test [2] (setting [3]) were 60 nM and 200 nM, respectively.
Taken in the same sequence, the figures for `CS(=O)(=O)N1CCCN(Cc2coc3cc(Oc4nc5ncccc5s4)ccc23)CC1` [Example 247, 2-[3-(4-Methanesulfonyl-[1,4]diazepan-1-ylmethyl)-benzofuran-6-yloxy]-thiazolo[4,5-b]pyridine] were 9 nM and 24 nM.
Taken in the same sequence, the figures for `CS(=O)(=O)NC1CCN(Cc2coc3cc(Oc4nc5ccccc5s4)ccc23)CC1` [Example 363, N-{1-[6-(Benzothiazol-2-yloxy)-benzofuran-3-ylmethyl]-piperidin-4-yl}-methanesulfonamide] were 37 nM and 400 nM.
As to `c1cnc2nc(Oc3ccc4c(CN5CCC(N6CCCC6)CC5)coc4c3)sc2c1` [Example 283, 2-[3-(4-Pyrrolidin-1-yl-piperidin-1-ylmethyl)-benzofuran-6-yloxy]-thiazolo[4,5-b]pyridine formate], the half-inhibitory concentration (IC50) in test [1] came to 35 nM; in test [2] (setting [3]), 130 nM.
Regarding `c1cnc2nc(Oc3ccc4c(CN5CCc6c(sc7ccccc67)C5)c[nH]c4c3)sc2c1` [Example 35, 2-[6-(Thiazolo[4,5-b]pyridin-2-yloxy)-1H-indol-3-ylmethyl]-1,2,3,4-tetrahydro-benzo[4,5]thieno[2,3-c]pyridine], the results for the IC50 in test [1] and in test [2] (setting [3]) were 34 nM and 234 nM, respectively.
On to `c1cnc2nc(Oc3ccc4cc(CN5CCCCC5)[nH]c4c3)sc2c1` [Example 71, 2-(2-Piperidin-1-ylmethyl-1H-indol-6-yloxy)-thiazolo[4,5-b]pyridine], for which the IC50 in test [1] came out at 17 nM; in test [2] (setting [3]), 87 nM.
As for `c1cnc2nc(Oc3ccc4cc(CN5CCCCC5)oc4c3)sc2c1` [Example 192, 2-(2-Piperidin-1-ylmethyl-benzofuran-6-yloxy)-thiazolo[4,5-b]pyridine formate], the IC50 in test [1] is 43 nM; in test [2], 120 nM.
As for `CC(=O)N[C@@H]1CCN(Cc2coc3cc(Oc4nc5ncccc5s4)ccc23)C1` [Example 324, (R)—N-{1-[6-(Thiazolo[4,5-b]pyridin-2-yloxy)-benzofuran-3-ylmethyl]-pyrrolidin-3-yl}-acetamide], the figures for the IC50 in test [1] and in test [2] (setting [3]) were 8 nM and 16 nM, respectively.
For the compound `CC1CCN(Cc2coc3cc(Oc4nc5ncccc5s4)ccc23)CC1` [Example 286, 2-[3-(4-Methyl-piperidin-1-ylmethyl)-benzofuran-6-yloxy]-thiazolo[4,5-b]pyridine formate], the results for the IC50 in test [1] and in test [2] (setting [3]) were 1 nM and 55 nM, respectively.
For the compound `CC(=O)N[C@H]1C[C@H]2CC[C@@H](C1)N2Cc1cc2cc(Oc3nc4c(F)cccc4s3)ccc2o1` [Example 85, meso-endo-N-{8-[5-(4-Fluoro-benzothiazol-2-yloxy)-benzofuran-2-ylmethyl]-8-aza-bicyclo[3.2.1]oct-3-yl}-acetamide], the IC50 in test [1] was determined as 17 nM; in test [2] (setting [3]), 210 nM.
